Reference: patent publication US12208085B2, “Pyrazoline-derived compound for use in the prevention and/or treatment of pain and inflammation associated to surgery in mammals” (ECUPHAR NV, priority 2022, dated 2025)

Columns and labels:
Format in all cases: in vivo
[1] = system: dogs undergoing experimental orthopaedic surgery; assay: Postoperative pain after experimental knee surgery (Maquet Modified Procedure), SFGCPS scoring; details: Beagle dogs
Protocol: The study was performed with 6 clinically healthy Beagle dogs with similar age and weight that were experimentally subjected to knee surgery (repair of cranial cruciate ligament rupture). […] All surgeries were conducted under the same preoperative, intraoperative and postoperative protocols and performed by the same surgeon. A highly standardized surgical technique, Maquet Modified Procedure (MMP) (12) was implemented.
For each dog the study lasted 17 days, including a 7-day acclimatization period. On day D−1 (approximately 24 h before the intervention) the five dogs in the TG received a single oral dose (8 mg/kg) of the TP, the one dog in the CG received a single subcutaneous dose (0.1 mg/kg) of the RP. […] On day D0 all dogs underwent knee surgery in the right knee. From day D1 up to day D10 dogs were closely examined and signs of pain and discomfort were blindly evaluated and rated using the Short Form of the Glasgow Composite Pain Scale (SFGCPS) ranging from 0 to 24 (13 and http://www.newmetrica.com/cmps/). On day D−1 dogs were also examined to rule out signs of pain or discomfort.

[2] = system: dogs undergoing soft tissue surgery; assay: Pilot field trial, postoperative pain and inflammation after elective soft tissue surgery (SFGCMPS, VAS), Placebo control; parameters: SFGCMPS Mobility average value / SFGCMPS Demeanour average value / SFGCMPS Posture/Activity average value / Total SFGCMPS average value / SFGCMPS Vocalization average value / SFGCMPS Attention to wound average value: scale not given here
Text: The study was a single centre, prospective, parallel-controlled, randomized and blinded pilot field trial with a negative (Placebo) control to evaluate the efficacy of E-6087 in dogs undergoing elective soft tissue surgery.
Twenty dogs (17 females and 3 males) were included in the study. Dogs were of different breeds or crossbreed, ages from 3 months to 7 years and weights from 4 to 34 kg. All dogs were clinically healthy other than the condition causing the animal to go under surgery.
Two days before surgery animals were weighed, a detailed physical examination was performed, and blood samples were collected for routine haematology and biochemistry to confirm the good health status of the animals before inclusion.
Dogs were randomly allocated to receive either E-6087 or Placebo as oral tablets. E-6087 and Placebo tablets were similar (same appearance and packaging), therefore treatment administration, clinical examinations and blood sample analysis was always blind.
E-6087 was administered at the dose of 8 mg/kg on day D−1, approximately 24 h before surgery scheduled time, before the first meal of the day. Placebo tablets were administered following the same posology.
Surgeries were performed in the morning, on day D0 by the Investigator (Surgeon). All surgeries were performed under the same anaesthesia protocol. Premedication was performed with medetomidine and morphine both at 0.1 ml/10 kg followed by anaesthesia maintained with Tiletamine/Zolazepam (Zoletil®). Local anaesthesia was not permitted. At the end of surgery, antibiotic therapy was administered to all dogs following the post-operative protocol stablished: amoxicillin (trihydrate) at 15 mg of amoxicillin/kg bw in a single dose.
Clinical assessments of postoperative pain and inflammation were done by the Investigator (Examining Veterinarian) using the SFGCMPS (13). Visual Analog Scales (VAS) were also used to assess pain at rest and under palpation as well as the level of inflammation.
On D0 at approximately 2 hours before surgery the Examining Veterinarian performed a physical examination and the clinical assessment of pain and inflammation to determine the basal scores. After surgery pain and inflammation were assessed at six examination time points: t1.5 h, t3 h, t5 h (±30 minutes), t8 h (±1 hour), t24 h and t168 (D7), when t0 h corresponded to the end of surgery (extubation).
Clinical assessment of pain and inflammation included assessments of vocalization, attention to wound area, mobility, reaction to pressure at the wound area, general behaviour as well as activity and posture as per SFGCMPS. In addition, pain at rest and after palpation as well as the level of inflammation were assessed at the same time points by VAS ranging from 0 (no pain) to 100 (severe pain manifested by vocalization, aggression, and refusal to allow examination) and from 0 (no inflammation) to 100 (major inflammation as local heat, redness or paresis of the affected area).
Statistical Analysis was performed by use of commercially available software (SigmaPlot for Windows version 13.0). The area under the curve (AUC) was calculated for observable pain during the initial 8 and 24 hours, and it was considered as the primary efficacy variable. All analyses applied a two-sided significance level α=0.05 and a power β=80%. Demographic and baseline data were compared using the Mann-Whitney U test. Gender was compared with the Fisher exact probability test in contingency tables. Efficacy variables were analysed by repeated measures ANOVA.
The foremost surgical procedure was ovariohysterectomy, and this determined that most included animals were females. Sixteen females were ovariohysterectomized. Two males were castrated by cryptorchidectomy. […] All surgeries lasted less than 30 minutes except for one that lasted 54 minutes (perineal hernia).

[3] = system: dogs undergoing orthopaedic surgery; assay: Non-inferiority field study, postoperative pain and inflammation after orthopaedic surgery (SFGCMPS, VAS), meloxicam control
Text: The study was a non-inferiority, multicentre, prospective, parallel-controlled, randomized and blinded field study.
Thirty-two dogs of different breed, age and weight presenting at the veterinary practice for orthopaedic surgery were included.
Agents with analgesic effect were permitted as premedication. However, intraoperative or postoperative analgesia were not permitted.
For each dog the study lasted twelve days. Two days before surgery, all animals were weighed and underwent a thorough physical examination with clinical pathology to confirm the good health status of the animals before inclusion. Day 0 (D0) was the day dogs underwent surgery and t0 h corresponded to the end of surgery (extubation). The physical examination was repeated on D0, before surgery (t−2 h) and before dispatch (t8 h) and again at t24 h (D1) and t168 (D7) post-surgery. Clinical assessments of pain and inflammation were blindly performed on D0, before surgery (t−2 h) and again at t1.5 h, t3 h, t5 h, t8 h, t24 h (D1) and t168 h (D7) post-surgery. The global efficacy of treatments was assessed on D7. From day D1 to day D7 post-surgery, the owners assessed the dog's wellbeing.
The primary endpoint for efficacy comprises the sum of scores for the SFGCMPS scale, which was assessed at different time points by the Investigator.
From day D1 to D7, owners daily assessed the dogs' wellbeing using scales for: • Demeanour (0=normal; 1=slightly modified; 2=moderately modified; 3=markedly modified and 4=severely modified). • Mobility (0=normal; 1=slightly impaired; 2=moderately impaired; 3=markedly impaired and 4=severely impaired). • Quality of analgesia as very satisfactory (=1); satisfactory (=2); not very satisfactory (=3); not at all satisfactory (=4).
Blood samples were collected from all animals before inclusion (≤D−2), for routine pre-surgery blood profile. Potential adverse effects related to the products were also recorded.
Statistical Analysis was performed by use of commercially available software. All analyses used a two-sided significance level α=0.05. […]

[4] = 8 mg/kg oral D-1, 1.5 h after surgery
[5] = 8 mg/kg oral D-1, 3 h after surgery
[6] = 8 mg/kg oral D-1, 5 h after surgery
[7] = 8 mg/kg oral D-1, 8 h after surgery
[8] = 8 mg/kg oral D-1, 24 h after surgery

In the case of `NS(=O)(=O)c1ccc(N2N=C(C(F)(F)F)CC2c2ccc(F)cc2F)cc1` (stereo not shown) [E-6087, enflicoxib], the “potential adverse effects related to product administration” value ([1]; single oral dose 8 mg/kg on D-1) is reported as “No potential adverse effects”, the “need of rescue analgesia” value ([1]; single oral dose 8 mg/kg on D-1, 10 days follow up) is reported as “None of the animals needed rescue analgesia” and the “analgesic efficacy in the postoperative period after orthopaedic surgery” value ([1]; single oral dose 8 mg/kg on D-1, knee surgery D0) is reported as “effective as analgesic agent”. The “SFGCMPS Attention to wound average value” [2, 4] was 0, the “SFGCMPS Demeanour average value” [2, 4] was 0.83 and the “SFGCMPS Mobility average value” [2, 4] was 0.33. For the same compound, the “SFGCMPS Posture/Activity average value” [2, 4] was 0.17, the “SFGCMPS Pressure on wound average value” [2, 4] was 0.33 and the “SFGCMPS Vocalization average value” [2, 4] was 0.25. The “Total SFGCMPS average value” [2, 4] was 1.92, the “SFGCMPS Attention to wound average value” [2, 5] was 0.08 and the “SFGCMPS Demeanour average value” [2, 5] was 0.50. For the same compound, the “SFGCMPS Mobility average value” [2, 5] was 0, the “SFGCMPS Posture/Activity average value” [2, 5] was 0.08 and the “SFGCMPS Pressure on wound average value” [2, 5] was 0.42. For the same compound, the “SFGCMPS Vocalization average value” [2, 5] was 0.25, the “Total SFGCMPS average value” [2, 5] was 1.33 and the “level of inflammation (VAS), compared with Placebo” value ([2]; 8 mg/kg oral D-1, 3 hours after surgery, p=0.021, Placebo greater) was “statistically significant differences”. For the same compound, the “SFGCMPS Attention to wound average value” [2, 6] was 0.08, the “SFGCMPS Demeanour average value” [2, 6] was 0.17 and the “SFGCMPS Mobility average value” [2, 6] was 0. The “SFGCMPS Posture/Activity average value” [2, 6] was 0, the “SFGCMPS Pressure on wound average value” [2, 6] was 0.50 and the “SFGCMPS Vocalization average value” [2, 6] was 0. For the same compound, the “Total SFGCMPS average value” [2, 6] was 0.75, the “SFGCMPS Attention to wound average value” [2, 7] was 0 and the “SFGCMPS Demeanour average value” [2, 7] was 0. For the same compound, the “SFGCMPS Mobility average value” [2, 7] was 0, the “SFGCMPS Posture/Activity average value” [2, 7] was 0 and the “SFGCMPS Pressure on wound average value” [2, 7] was 0.67. The “SFGCMPS Vocalization average value” [2, 7] was 0, the “Total SFGCMPS average value” [2, 7] was 0.50 and the “SFGCMPS Attention to wound average value” [2, 8] was 0. The “SFGCMPS Demeanour average value” [2, 8] was 0, the “SFGCMPS Mobility average value” [2, 8] was 0 and the “SFGCMPS Posture/Activity average value” [2, 8] was 0. The “SFGCMPS Pressure on wound average value” [2, 8] was 0.50, the “SFGCMPS Vocalization average value” [2, 8] was 0 and the “Total SFGCMPS average value” [2, 8] was 0.50. The “AUC (primary efficacy variable) for the first 24 hours after surgery, compared with Placebo” value ([2]; 8 mg/kg oral D-1, difference not statistically significant (p=0.266)) was “almost half”, the “SFGCMPS AUC0→8 h” value ([2]; 8 mg/kg oral D-1, first 8 hours after surgery) was 8.0 ± 5.0 and the “SFGCMPS AUC0→24 h” value ([2]; 8 mg/kg oral D-1, first 24 hours after surgery) was 16.0 ± 15. For the same compound, the “AUC for the first 8 hours, compared with Placebo” value ([2]; 8 mg/kg oral D-1, p=0.033) was “statistically significant lower values”, the “Total scores for SFGCMPS at each time point, compared with Placebo” value ([2]; 8 mg/kg oral D-1, significant only at 1.5, 3 and 5 hours) was “always lower” and the adverse events ([2]; 8 mg/kg oral D-1, whole study) was “No adverse events were observed”. The “alleviation of pain and inflammation after soft tissue surgery (conclusion)” value ([2]; single dose of 8 mg/kg) was “effective in alleviating pain and inflammation”, the “level of inflammation (VAS), compared with meloxicam” value ([3]; 8 mg/kg oral D-1, 3 h after surgery, p=0.025) was “lower values” and the “assessment of global efficacy, compared with meloxicam” value ([3]; 8 mg/kg oral D-1, D7, p=0.7879) was “No differences were detected”. For the same compound, the “SFGCMPS (AUC), primary efficacy variable, average value” ([3]; initial 24 hours after orthopaedic surgery, E-6087 8 mg/kg oral D-1, meloxicam 0.2 mg/kg D0 then 0.1 mg/kg daily to D7) was 95.50±57.70.
